From US8540967B2, “Porphyrazine optical and dual optical/MR contrast and therapeutic agents” (Hoffman/Barrett, L.L.C., priority 2008, dated 2013)

How the values were obtained:
[1] = Relaxivity (r1) of Gd-pz conjugates; format: physicochemical
Method: Dual-mode contrast agents were generated by coupling pz optical agents with gadolinium-based (Gd^3+) MR agents in order to permit co-registration of optical and MR image data. The synthetic versatility of the present pz structure allows a variety of strategies for attaching multiple MR imaging agents, for example, Gd^3+ chelates, to the pz structure. […] The relaxivity of a Gd^3+ chelate attached to a pz ranges from about 10 to about 14 mM-1s-1/Gd (Table 1).
In the preparation of Gd-pzs, ‘click’ chemistry was used to append 4 and 8 Gd^3+ chelates to an M[pz(A2; B2)] pz, leading to the Gd8-Mpz conjugate (M=Zn, Cu) shown above, and analogous Gd-4-Mpz conjugates having one chelate per pz ‘arm’. […] This is significant because the higher the observed relaxivity of the conjugate, the greater its efficacy as an in vivo MR contrast agent. Importantly, these conjugates are suitable as dual-mode contrast agents because the presence of as many as eight Gd agents has no significant influence on the pz luminescence for the M=Zn complex. In addition, the pz-Gd conjugates are water soluble and can be administered to rodents without the addition of DMSO.

[2] = tested on: WI38 VA13 non-tumorigenic cells; experiment: MTT assay, non-tumorigenic cells; format: cell-based; details: 50 μM
Method: (§1) The MTT test was performed using the procedure disclosed in S. Lee et al., Metal-Based Drugs (2008), pages 391-418.

[3] = tested on: A549 lung carcinoma cells; experiment: Confocal NIR fluorescence microscopy of cellular uptake, tumor cells; format: cell-based; details: confocal images; compound 247: 50 μM, 24 hr stain
Method: (§2) Cellular uptake monitored by confocal fluorescence microscopy is dependent on the pz's overall amphiphilicity, and qualitative analysis indicates preferential uptake into tumor cells (e.g., A549) over non-tumorigenic cells (e.g., WI38 VA13).
as §1

[4] = tested on: A549 lung carcinoma cells; experiment: Time course studies of pz accumulation and cell viability; format: cell-based
Method: Time course studies also were performed using compounds 241, 243, 244, 246, 247, 249, 254, and 255 using A549 lung carcinoma cells and W138 VA13 non-tumorigenic cells. The studies confirmed accumulation of a present pz in tumor cells and a decrease in tumor cell viability.

[5] = tested on: A549 tumor cells; experiment: MTT assay, tumor cells; format: cell-based; details: 50 μM
Method: as §1

[6] = tested on: MDA-MB-231-RFP subcutaneous tumors; experiment: NIR fluorescence imaging of subcutaneous tumors in female SCID mice; format: in vivo, mouse
Source text: In a second experiment to verify that compound 247 robustly and reproducibly localizes in tumors of more than one tissue origin, female SCID mice were subcutaneously injected with MDA-MB-231-RFP cells stably expressing Red Fluorescent Protein (RFP). This approach provides excellent confirming information because (a) palpable subcutaneous tumors are easily identified prior to imaging as opposed to bone tumors which are difficult to detect non-invasively; (b) RFP-expressing tumors are visible through the skin as opposed to GFP tumors, which require removal of skin prior to imaging; (c) pz localization in the tumor is visible during non-invasive whole animal imaging; and (d) tumors are easily harvested, fixed, and processed for histochemical and biochemical analyses. Five mice were dosed with 20 nmol of compound 247 in 7.5% DMSO, administered intravenously. The […] wavelength used for RFP excitation was 535 nm with emission detected using a 565-615 nm bandpass filter. Compound 247 was excited using a 625 nm bandpass and emission detected at 700 nm. […] Therefore, there is no penetration of undesired signal during imaging. Images were acquired for RFP, as well as pz fluorescence, after 5, 24, 32 and 48 hours. […] With this remarkable contrast, compound 247 therefore acts as a ‘turn-on’ NIR-fluorescence tumor imager. At the conclusion of the 48 hour experiment, the tumors were excised and processed for antibody staining. Slices were stained for nuclei (DAPI) to determine the localization of pzs within heterogeneous 3-dimensional tumors. […] The important benefit of having the RFP and pz survive tissue processing is noted.

[7] = tested on: WI38 VA13 non-tumorigenic cells; experiment: Confocal NIR fluorescence microscopy of cellular uptake, non-tumorigenic cells; format: cell-based; details: confocal images; 50 μM
Method: as §2, §1
Therefore, compound 270, a pz having a single appended Gd^3+, was synthesized.

[8] = tested on: PC3-EGFP (human prostate tumor cells stably expressing GFP) tibia tumors; experiment: Biodistribution by NIR fluorescence imaging in mice with tibia tumors; format: in vivo, mouse
Method: In one experiment, male FVB/n5 Rag-1−/− mice were injected with […] PC3-EGFP (human prostate tumor cells stably expressing GFP) in the tibia four weeks prior to imaging with pzs. Prior to imaging, the mice were anesthetized with 4% isoflurane and injected with 20 nmol of compound 247 (150 μL, 7.5% DMSO) intravenously via the tail vein. Fluorescent images were acquired immediately and after 4, 24, and 42 hours. […] GFP images were acquired using excitation wavelengths of 465 nm and fluorescence was detected at 535 nm. X-ray images were acquired for anatomical co-registration.
The mice subsequently were euthanized, legs were excised, and images were acquired without the surrounding skin and muscle.

Row | Compound | Relaxivity r1/Gd ([1]; per Gd) | Relaxivity r1 (molecular relaxivity) ([1]; per molecule) | Toxicity to non-tumorigenic cells (MTT) [2] | Uptake/accumulation in A549 lung carcinoma cells (NIR fluorescence) [3] | Accumulation of pz in tumor cells [4] | Tumor cell viability [4] | Toxicity to tumor cells (MTT) [5] | Time until pz fluorescence detectable in tumor ([6]; 20 nmol i.v. in 7.5% DMSO) | pz fluorescence intensity in tumor over time ([6]; 20 nmol i.v., over the 48 hour experiment) | pz fluorescence in other organs or tissues ([6]; 20 nmol i.v., up to 48 hours) | Accumulation in MDA-231 tumors in vivo ([6]; 20 nmol tail vein, 5 to 48 hours) | Localization within excised tumor sections ([6]; tumors excised at 48 hours, DAPI-stained slices) | Uptake into WI38 VA13 cells (NIR fluorescence) [7] | pz fluorescence location after 4 hours ([8]; 20 nmol i.v. tail vein, 4 hours) | pz fluorescence location after 24 hours ([8]; 20 nmol i.v. tail vein, 24 hours) | Red fluorescence location in excised legs ([8]; 20 nmol, excised legs without skin and muscle, overlay with GFP) | Retention in tumor-free tibia ([8]; mouse 3 without tumor)
1 | O=C([O-])CN1CCN(CC(=O)[O-])CCN(CC(=O)O)CCN(CC(=O)[O-])CC1.[Gd+3] [Gd-DOTA, gadolinium tetrazacyclododecanetetraacetic acid] | 3.2 mM⁻¹ s⁻¹ | 3.2 mM⁻¹ s⁻¹ |  |  |  |  |  |  |  |  |  |  |  |  |  |  | 
2 | CO[C@]1(C)Oc2c(c3nc4nc(nc5[nH]c(nc6nc(nc2[nH]3)-c2c(OC(C)C)ccc(OC(C)C)c2-6)c2c5O[C@@](C)(OC)[C@](C)(OC)O2)-c2c(OC(C)C)ccc(OC(C)C)c2-4)O[C@@]1(C)OC [Compound 247] |  |  | non-toxic | excellent uptake | accumulation | decrease | mildly toxic | ≤ 5 h | increased dramatically | no pz fluorescence in other mouse organs or tissues | accumulates over time | precise colocalization of compound 247 with the tumor cytosol | lesser uptake | seen in the liver | highly localized in the mouse tibia tumors | localized in the tumors | not non-specifically retained in the bones
